Tests used:
Assay type in all cases: cell-based
MOLM13 = assay: CellTiter-Blue cell viability, MOLM13; settings: Homo sapiens, MOLM-13; AML cell line, 72 hours
Description: (§1) The anti-cancer efficacy of exemplary compounds of the application were assessed in vitro against different cancer cell lines. Cell viability was examined following treatment at various concentrations of inhibitor (0.097656-50 μM) using a CellTiter-Blue® cell viability assay. 1×10^4 cells/well were plated in 96-well assay plates in culture medium. All cells were grown in DMEM, IMDM and RPMI-1640 supplemented with 10% fetal bovine serum (FBS). In some instances, FBS was removed for periods ranging from 16-24 hours, and re-introduced with test compound addition. After 24 hrs, test compounds and vehicle controls were added to appropriate wells such that the final volume was 100 μl in each well. The cells were cultured for the desired test exposure period (72 hours) at 37° C. and 5% CO2. The assay plates were removed from 3° C. incubator and 20 μl/well of CellTiter-Blue® Reagent was added. The plates were incubated using standard cell culture conditions for 1-4 hours. Afterwards, the plates were shaken for 10 seconds and florescence was recorded at 560/590 nm using a Cytation 3 spectrophotometer. IC50 values were determined using non-linear regression analysis with GraphPad Prism 6.0 (GraphPad Software Inc.).

MV4-11 = assay: CellTiter-Blue cell viability, MV4-11; settings: for activity in AML cells: AML cells (MV4-11 and MOLM13); for IC50: Homo sapiens, MV4-11, AML cell line, 72 hours; for potency relative to parent I-1 analogue: cell viability, Table 1
Description: as §1

[1] = system: healthy human lung cells (MRC9); assay: CellTiter-Blue cell viability, MRC9; settings: non-cancerous, 72 hours
Description: as §1

| Compound | IC50 (MOLM13) | IC50 (MV4-11) | activity in AML cells (MV4-11) | IC50 [1] | potency relative to parent I-1 analogue (MV4-11) |
| --- | --- | --- | --- | --- | --- |
| O=S(=O)(c1ccccc1)N(Cc1ccc(F)cc1)C1CC1 [Comparative Example 2, N-cyclopropyl-N-(4-fluorobenzyl)benzenesulfonamide, reference compound] | ≥ 25 µM | ≥ 25 µM | inactive |  |  |
| O=S(=O)(NCc1ccc(F)cc1)c1c(F)c(F)c(F)c(F)c1F [Comparative Example 4, 2,3,4,5,6-pentafluoro-N-(4-fluorobenzyl)benzenesulfonamide, reference compound] | 4 µM | 3.1 µM |  | 16.8 µM | less potent |
| O=S(=O)(Nc1ccc(F)cc1)c1c(F)c(F)c(F)c(F)c1F [Comparative Example 5, 2,3,4,5,6-pentafluoro-N-(4-fluorophenyl)benzenesulfonamide, reference compound] | 17.6 µM | 4.4 µM |  |  | less potent |
| O=S(=O)(NC1CC1)c1c(F)c(F)c(F)c(F)c1F [Comparative Example 6, N-cyclopropyl-2,3,4,5,6-pentafluorobenzenesulfonamide, reference compound] | 7 µM | 6.4 µM |  | 19.1 µM |  |
| O=S(=O)(NC1(c2ccccc2)CC1)c1c(F)c(F)c(F)c(F)c1F [Comparative Example 7, 2,3,4,5,6-pentafluoro-N-(1-phenylcyclopropyl)benzenesulfonamide, reference compound] |  | 31 µM |  |  |  |
| O=S(=O)(c1c(F)c(F)c(F)c(F)c1F)N(Cc1ccccc1)Cc1ccc(F)cc1 [Compound I-3] | 9.3 µM | 0.59 µM |  | 14.4 µM |  |
| CC(=O)N(Cc1ccc(F)cc1)S(=O)(=O)c1c(F)c(F)c(F)c(F)c1F [Compound I-4, N-(4-fluorobenzyl)-N-((perfluorophenyl)sulfonyl)acetamide] | 5.1 µM | 2.09 µM |  | 25 µM |  |
| O=S(=O)(c1c(F)c(F)c(F)c(F)c1F)N(C1CC1)C(c1ccc(F)cc1)C(F)(F)F (stereo not shown) [Compound I-10, N-cyclopropyl-2,3,4,5,6-pentafluoro-N-(2,2,2-trifluoro-1-(4-fluorophenyl)ethyl)benzenesulfonamide] | 9.83 µM | 0.974 µM |  |  |  |
| CCOC(=O)C1(N(Cc2ccc(F)cn2)S(=O)(=O)c2c(F)c(F)c(F)c(F)c2F)CC1 [Compound I-18, Ethyl 1-((2,3,4,5,6-pentafluoro-N-((5-fluoropyridin-2-yl)methyl)phenyl)sulfonamido)cyclopropane-1-carboxylate] | 6.2 µM | 2.8 µM |  |  |  |
| COc1cc(CN(C2CC2)S(=O)(=O)c2c(F)c(F)c(F)c(F)c2F)cc(OC)c1 [Compound I-22, N-cyclopropyl-N-(3,5-dimethoxybenzyl)-2,3,4,5,6-pentafluorobenzenesulfonamide] | 4.5 µM | 4.7 µM |  |  |  |
| COc1cc(CN(C2CC2)S(=O)(=O)c2c(F)c(F)c(F)c(F)c2F)cc(OC)c1O [Compound I-29, N-cyclopropyl-2,3,4,5,6-pentafluoro-N-(4-hydroxy-3,5-dimethoxybenzyl)benzenesulfonamide] | 3.96 µM | 1.94 µM |  | 9.7 µM |  |
| O=S(=O)(c1c(F)c(F)c(F)c(F)c1F)N(CC#Cc1ccccc1)C1CC1 [Compound I-31, N-cyclopropyl-2,3,4,5,6-pentafluoro-N-(3-phenylprop-2-yn-1-yl)benzenesulfonamide] | 5.2 µM | 1.53 µM |  | 15.5 µM |  |
| O=C(OCc1ccccc1)c1ccc(CN(C2CC2)S(=O)(=O)c2c(F)c(F)c(F)c(F)c2F)cc1 [Compound I-41, Benzyl 4-(((N-cyclopropyl-2,3,4,5,6-pentafluorophenyl)sulfonamido)methyl)benzoate] | 3.2 µM | 1 µM |  |  |  |
| O=S(=O)(c1c(F)c(F)c(F)c(F)c1F)N(Cc1ccncc1)Cc1ccc(F)cc1 [Compound I-52] | 3.5 µM | 4.1 µM |  |  |  |
| O=S(=O)(c1c(F)c(F)c(F)c(F)c1F)N(Cc1ccc(F)cc1)c1ccccc1 [Compound I-53, 2,3,4,5,6-pentafluoro-N-(4-fluorobenzyl)-N-phenylbenzenesulfonamide] | 1.5 µM | 1.4 µM |  |  |  |
| CN(Cc1ccc(F)cc1)S(=O)(=O)c1c(F)c(F)c(F)c(F)c1F [Compound I-58, 2,3,4,5,6-pentafluoro-N-(4-fluorobenzyl)-N-methylbenzenesulfonamide] | 3.1 µM | 0.44 µM |  |  |  |

Further lines, with some results ahead:

| IC50 (MOLM13) | IC50 (MV4-11) | Compound | activity in AML cells (MV4-11) | IC50 [1] | potency relative to parent I-1 analogue (MV4-11) |
| --- | --- | --- | --- | --- | --- |
| > 25 µM | > 12.5 µM | O=S(=O)(c1c(F)c(F)cc(F)c1F)N(Cc1ccc(F)cc1)C1CC1 [Comparative Example 8, N-cyclopropyl-2,3,5,6-tetrafluoro-N-(4-fluorobenzyl)benzenesulfonamide, reference compound] | inactive |  |  |
| 2 µM | 0.7 µM | O=S(=O)(c1c(F)c(F)c(F)c(F)c1F)N(Cc1ccc(F)cc1)C1CCCC1 [Compound I-5, N-cyclopentyl-2,3,4,5,6-pentafluoro-N-(4-fluorobenzyl)benzenesulfonamide] |  |  |  |
| 1.3 µM | 1.3 µM | O=S(=O)(c1c(F)c(F)c(F)c(F)c1F)N(Cc1ccccc1)C1CC1 [Compound I-6, N-benzyl-N-cyclopropyl-2,3,4,5,6-pentafluorobenzenesulfonamide] |  | 17.5 µM |  |
| 1.62 µM | 1.83 µM | O=S(=O)(c1c(F)c(F)c(F)c(F)c1F)N(Cc1ccncc1)C1CC1 [Compound I-9, N-cyclopropyl-2,3,4,5,6-pentafluoro-N-(pyridin-4-ylmethyl)benzenesulfonamide] |  |  |  |
| 3.37 µM | 1.7 µM | O=S(=O)(c1c(F)c(F)c(F)c(F)c1F)N(Cc1cccc(F)c1)C1CC1 [Compound I-11, N-cyclopropyl-2,3,4,5,6-pentafluoro-N-(3-fluorobenzyl)benzenesulfonamide] |  | 9 µM |  |
| 0.63 µM | 0.79 µM | COc1ccc(CN(C2CC2)S(=O)(=O)c2c(F)c(F)c(F)c(F)c2F)cc1F [Compound I-17, N-cyclopropyl-2,3,4,5,6-pentafluoro-N-(3-fluoro-4-methoxybenzyl)benzenesulfonamide] |  | 16.2 µM |  |
| 1.35 µM | 1.15 µM | CS(=O)(=O)c1ccc(CN(C2CC2)S(=O)(=O)c2c(F)c(F)c(F)c(F)c2F)cc1 [Compound I-24, N-cyclopropyl-2,3,4,5,6-pentafluoro-N-(4(methylsulfonyl)benzyl)benzenesulfonamide] |  |  |  |
| 0.9 µM | 2 µM | COC(=O)c1ccc(CN(C2CC2)S(=O)(=O)c2c(F)c(F)c(F)c(F)c2F)cc1 [Compound I-27, Methyl 4-(((N-cyclopropyl-2,3,4,5,6-pentafluorophenyl)sulfonamido)methyl)benzoate] |  |  |  |
| 1.3 µM | 1.5 µM | O=S(=O)(c1c(F)c(F)c(F)c(F)c1F)N(Cc1ccccn1)C1CC1 [Compound I-32, N-cyclopropyl-2,3,4,5,6-pentafluoro-N-(pyridin-2-ylmethyl)benzenesulfonamide] |  |  |  |
| 3.86 µM | 3.55 µM | O=S(=O)(c1c(F)c(F)c(F)c(F)c1F)N(Cc1ccoc1)C1CC1 [Compound I-33] |  | 22.1 µM |  |
| 3.37 µM | 4.8 µM | O=S(=O)(c1c(F)c(F)c(F)c(F)c1F)N(Cc1ccc(F)cc1)C1CCOC1 (stereo not shown) [Compound I-51, 2,3,4,5,6-pentafluoro-N-(4-fluorobenzyl)-N-(tetrahydrofuran-3-yl)benzenesulfonamide] |  |  |  |
